Measurements from EP4631931A1, “HDAC INHIBITOR AND USE THEREOF” (Wigen Biomedicine Technology (Shanghai) Co., Ltd., priority 2022, dated 2024).

Tests used:
[1] = system: Jurkat cell; assay: Inhibition of Jurkat cell proliferation (CTG, intracellular ATP); type: cell-based; conditions: Homo sapiens, 72 h, compared to DMSO group, read-out: Inhibitory activity against Jurkat cell proliferation (IC50)
Procedure: (§1) Jurkat or 293T cells were seeded into a 96-well plate at 3000 cells/well. After overnight adherence culture, the serially diluted compound in DMSO was added. After 72 h, the intracellular ATP level was determined by CTG. The IC50 for the inhibition of cell proliferation by the compounds was calculated compared to the DMSO group. Table 8. Inhibitory activity of compounds of the present disclosure against Jurkat/293T cell proliferation (IC50, µM)

[2] = system: 293T cell; assay: Inhibition of 293T cell proliferation (CTG, intracellular ATP); type: cell-based; conditions: Homo sapiens, HEK-293T, 72 h, compared to DMSO group, read-out: Inhibitory activity against 293T cell proliferation (IC50)
Procedure: as §1

[3] = system: HeLa cells; assay: Intracellular acetyl lysine / H3K 27 acetyl lysine level by ELISA; type: cell-based; conditions: 24 h of treatment
Procedure: HeLa cells were seeded into a 96-well plate at 20000 cells/well. After overnight adherence culture, the serially diluted compound was added. After 24 h of treatment, intracellular levels of acetyl lysine and H3K 27 acetyl lysine were quantified by ELISA. Table 9. Effect of compound of the present disclosure on levels of acetyl lysine and H3K 27 acetyl lysine

[4] = system: OVCAR 3 cells; assay: NK cell-mediated tumor cell killing (NK92 cells, GFP count); type: cell-based; conditions: Homo sapiens, 72 h compound, 1-4 h co-culture, compared to DMSO group, read-out: EC50 in promoting the NK92 cell-mediated OVCAR 3 cell death
Procedure: OVCAR 3 cells […] expressing GFP were seeded into a 96-well plate at 4000 cells/well. After overnight adherence culture, the serially diluted compounds were added, and the plate was incubated for another 72 h. After the two types of cells were mixed and cultured for another 1-4 h, NK92 cells were removed by washing with PBS, and adherent GFP-positive tumor cells were counted. The EC50 of the compounds in promoting the NK92 cell-mediated OVCAR 3 cell death was calculated compared to the DMSO group. Table 11. NK cell-mediated tumor cell killing by compounds of the present disclosure

[5] = Pharmacokinetic experiment in mice; type: in vivo, CD-1 female mice; conditions: female, CD-1, mouse, plasma; for Vd: read-out: Vdss
Procedure: CD-1 female mice aged 7 to 10 weeks were intravenously administered and orally administered at doses of 1 mg/kg and 10 mg/kg, respectively. The mice were fasted for at least 12 h before the administration and given food 4 h after the administration, and they were given ad libitum access to water during the experiment.
On the day of the experiment, animals in the intravenous group were given the corresponding compound by single injection via the tail vein at an administration volume of 10 mL/kg; and animals in the oral group were given the corresponding compound by single intragastric injection at an administration volume of 10 mL/kg. The animals were weighed before administration, and the administration volume was calculated according to the body weight. The sample collection time points were 0.083 h, 0.167 h, 0.5 h, 1 h, 2 h, 4 h, 8 h, and 24 h. About 200 µL of whole blood was collected through the orbital venous plexus at each time point and used to prepare plasma for concentration determination by high-performance liquid chromatography-tandem mass spectrometry (LC-MS/MS). The plasma concentrations were processed using a non-compartmental model of Winnolin pharmacokinetic software, and the pharmacokinetic parameters were calculated using a linear-log trapezoidal method. Table 13. Results of in vivo pharmacokinetic evaluation of compounds of the present disclosure

[6] = system: Mouse colon cancer MC38 cells; assay: In vivo efficacy in MC-38 model; parameters: species or system C57BL6N mice; conditions: small molecules 15mg/kg PO QD, PD-1 1mg/kg IV QW, BDO 2mg/kg IP QW, 21 days
Procedure: (§2) Female C57BL6N mice (aged 6 weeks, 18-22 g) were provided by Vital River Laboratory Animal Technology Co., Ltd. (China) and used one week after quarantine and acclimation. All animals were kept in a room at 23±2 °C with a relative humidity of 50±5%, artificial lighting was provided from 08:00 to 20:00 every day, and the air was exchanged 13-18 times per hour. Mouse colon cancer MC38 cells were cultured conventionally in 1640 medium containing 10% fetal bovine serum in an incubator at 37 °C with 5% CO2. After being subcultured, the cells were collected when they reached the desired amount. The C57BL6N mice were subcutaneously injected with 2 × 10^6 MC38 cells on the right side to form tumors. After the tumors grew to about 100 mm^3, the animals were randomly grouped for administration. Tumor volumes were measured with a caliper on day 3, day 7, day 10, day 14, day 17, and day 21 after the administration. […] The toxicity of the compounds was evaluated according to the body weight and state of the mice.
Table 15. In vivo efficacy of some of the compounds of the present disclosure in MC-38 model

[7] = system: Mouse colon cancer CT-26 cells; assay: In vivo efficacy in CT-26 model; parameters: species or system BALB/c mice; conditions: small molecules 15mg/kg PO QD, PD-1 1mg/kg IV QW, BDO 2mg/kg IP QW, 21 days
Procedure: as §2, with “BALB/c” for “C57BL6N”, “CT-26” for “MC38”, “10^5 CT-26” for “10^6 MC38”
Table 16. In vivo efficacy of some of the compounds of the present disclosure in CT-26 model

[8] = Stability in liver microsomes; type: in vitro ADME; conditions: 1 µM compound, NADPH, 37 °C
Procedure: After the 1 µM compound was incubated with 0.5 mg/mL of human or mouse liver microsomes and an NADPH regeneration system at 37 °C for different times, respectively, LC-MS-MS was used to analyze the remaining amount of the compound and calculate T1/2. Table 12. Evaluation results of stability of compounds of the present disclosure in human and mouse liver microsomes

[9] = Injection (1 mg/kg), intravenous
[10] = Human liver microsomes 0.5 mg/mL
[11] = Mouse liver microsomes 0.5 mg/mL

SMILES | IC50 [1] | AUC(0-t) [5, 9] | clearance [5, 9] | half-life [5, 9] | Vd [5, 9] | AUC(0-t) ([5]; Oral administration (10 mg/kg)) | Cmax ([5]; Oral administration (10 mg/kg)) | Tmax ([5]; Oral administration (10 mg/kg)) | bioavailability ([5]; Oral administration (10 mg/kg)) | half-life ([5]; Oral administration (10 mg/kg)) | CLint scaled at 1 µM [8, 10] | Clliver [8, 10] | half-life at 1 µM [8, 10] | CLint scaled at 1 µM [8, 11] | Clliver [8, 11] | half-life at 1 µM [8, 11] | IC50 [2] | Acetyl lysine Maximum (%) [3] | Acetyl lysine Minimum effective concentration [3] | H3K 27 Acetyl lysine Maximum (%) [3] | further results
[2H]c1cc(NC(=O)c2ccc(CNC(=O)/C=C/c3cccnc3)cc2)c(N)cc1F [Compound 1, (E)-N-(2-amino-4-fluorophenyl-5-d)-4-((3-(pyridin-3-yl)acrylamido)methyl)benzamide] | 0.86 µM | 401 ng·h/mL | 41.5 mL/min/kg | 2.41 h | 2.19 L/kg | 1890 ng·h/mL | 3450 ng/mL | 0.08 h | 45.3% | 2.76 h | – | – | – | – | – | – | > 10 µM | 430% | 16 nM | 360% | H3K 27 Acetyl lysine Minimum effective concentration [3]: 80 nM; EC50 [4]: 0.0439 µM; Change in body weight [6]: +17.6%; TGI(%) ([6]; 6 mice per group): 35.7%; Change in body weight [7]: +17.6%; TGI(%) ([7]; 6 mice per group): 35.7%
[2H]c1c(F)ccc(NC(=O)c2ccc(CNC(=O)/C=C/c3cccnc3)cc2)c1N [Compound 2] | 1.68 µM | 441 ng·h/mL | 37.8 mL/min/kg | 2.3 h | 1.61 L/kg | 2160 ng·h/mL | 2360 ng/mL | 0.08 h | 46.5% | 1.85 h | – | – | – | – | – | – | > 10 µM | 420% | 16 nM | 360% | H3K 27 Acetyl lysine Minimum effective concentration [3]: 80 nM
[2H]c1cc(F)cc(N)c1NC(=O)c1ccc(CNC(=O)/C=C/c2cccnc2)cc1 [Compound 3] | 1.86 µM | 592 ng·h/mL | 28.1 mL/min/kg | 2.78 h | 0.93 L/kg | 1770 ng·h/mL | 2350 ng/mL | 0.08 h | 26.3% | 2.21 h | – | – | – | – | – | – | 7.5 µM | – | – | – | –
[2H]c1cc(CNC(=O)/C=C/c2cccnc2)ccc1C(=O)Nc1ccc(F)cc1N [Compound 4] | 1.7 µM | 602 ng·h/mL | 27.7 mL/min/kg | 3.05 h | 1.32 L/kg | 1710 ng·h/mL | 1740 ng/mL | 0.08 h | 28.5% | 3.9 h | 19.5 mL/min/kg | 10.03 mL/min/kg | 1.49 h | 244 mL/min/kg | 65.74 mL/min/kg | 0.373 h | 3.26 µM | – | – | – | –
[2H]/C(=C\C(=O)NCc1ccc(C(=O)Nc2ccc(F)cc2N)cc1)c1cccnc1 [Compound 8] | 1.58 µM | 903 ng·h/mL | 36.9 mL/min/kg | 1.01 h | 1.21 L/kg | 1430 ng·h/mL | 824 ng/mL | 0.08 h | 29.6% | 1.87 h | 18.4 mL/min/kg | 9.73 mL/min/kg | 1.58 h | 285 mL/min/kg | 68.41 mL/min/kg | 0.319 h | 4.01 µM | – | – | – | –

Further lines, with some results ahead:

IC50 [1] | AUC(0-t) [5, 9] | clearance [5, 9] | half-life [5, 9] | Vd [5, 9] | AUC(0-t) ([5]; Oral administration (10 mg/kg)) | Cmax ([5]; Oral administration (10 mg/kg)) | Tmax ([5]; Oral administration (10 mg/kg)) | bioavailability ([5]; Oral administration (10 mg/kg)) | half-life ([5]; Oral administration (10 mg/kg)) | CLint scaled at 1 µM [8, 10] | Clliver [8, 10] | half-life at 1 µM [8, 10] | CLint scaled at 1 µM [8, 11] | Clliver [8, 11] | half-life at 1 µM [8, 11] | SMILES | IC50 [2] | Acetyl lysine Maximum (%) [3] | Acetyl lysine Minimum effective concentration [3] | H3K 27 Acetyl lysine Maximum (%) [3] | further results
1.08 µM | 1000 ng·h/mL | 16.6 mL/min/kg | 1.48 h | 0.44 L/kg | 1050 ng·h/mL | 1640 ng/mL | 0.17 h | 10.5% | 1.21 h | 4.59 mL/min/kg | 3.75 mL/min/kg | 6.32 h | 118 mL/min/kg | 50.99 mL/min/kg | 0.773 h | [2H]c1ncccc1/C=C/C(=O)NCc1ccc(C(=O)Nc2ccc(F)cc2N)cc1 [Compound 9] | 5.18 µM | – | – | – | –
0.95 µM | 733 ng·h/mL | 22.7 mL/min/kg | 1.79 h | 0.62 L/kg | 1330 ng·h/mL | 2370 ng/mL | 0.08 h | 18.2% | 1.19 h | 23.7 mL/min/kg | 11.04 mL/min/kg | 1.22 h | 231 mL/min/kg | 64.76 mL/min/kg | 0.394 h | [2H]c1cncc(/C=C/C(=O)NCc2ccc(C(=O)Nc3ccc(F)cc3N)cc2)c1 [Compound 11] | 5.16 µM | 450% | 80 nM | 460% | H3K 27 Acetyl lysine Minimum effective concentration [3]: 80 nM
1.59 µM | 514 ng·h/mL | 32.4 mL/min/kg | 1.17 h | 0.71 L/kg | 1610 ng·h/mL | 2080 ng/mL | 0.17 h | 30.5% | 1.93 h | 2.87 mL/min/kg | 2.52 mL/min/kg | 10.1 h | 108 mL/min/kg | 49.05 mL/min/kg | 0.844 h | [2H]c1ccc(/C=C/C(=O)NCc2ccc(C(=O)Nc3ccc(F)cc3N)cc2)cn1 [Compound 12] | 5.31 µM | – | – | – | –
